Legend:
[1] = tested on: 4T1 (mouse breast cancer); assay: MTS cell viability assay, 4T1 cells; format: cell-based; settings: for efficacy in killing cancer cells: 4T1, concentration 6× lower than the ED50 concentrations, FIG. 3a; for EC50: Mus musculus, 4T1, MTS, 48 hours, individual drug, read-out: ED50 in 4T1
Description: (§1) The 50% effective dose (or ED50) for 2-DG, MTX, and WGN (individually) against the cancer cell lines 4T1 (mouse breast cancer), MCF-7 (human breast cancer), THP-1 (human myelomonocytic cancer), and B16-F10 (mouse melanoma) was determined (Table 1). The cell lines were specifically chosen for their extremely aggressive nature. For example, the cell lines have evolved multiple mechanisms of resistance to cell death and are highly metastatic (e.g., equivalent to a stage 4 cancer model). In this assay, a Determination of the ED50 using the MTS cell viability assay
(§2) Analysis of the effects of MTX-2DG-WGN combination on cell growth was performed with an MTS kit (CellTiter 96® AQueous One Solution Cell Proliferation Assay Kit, Promega, Madison, WI, USA) according to the manufacturer's instruction. 4-T1, MCF-7, B16-F10, and THP-1 cells were seeded into 96-well plates at a density of 10×10^3 cells per well with three replicates. The cells were treated as indicated (MTX, 2DG, and WGN were added initially at concentrations of 100 μM, 50 mM, and 200 μM, respectively, followed by serial two-fold dilutions) and incubated for 48 hours at 5% CO2 at 37° C. After 48 h, 20 μL of CellTiter 96® AQueous One Solution MTS (5 mg/mL) (Promega—Madison, WI, USA) was added to each well and incubated at 5% CO2 at 37° C. for an additional 4 hours. Absorbance readings were taken in an Epoch microplate reader at 490 nm. Computed data was compared to untreated and normalized cells. Cells that were not administered any treatment were considered the control group. Cell viability was calculated by the following formula: Cell viability (%)=(average OD in treated group/average OD in control group)×100%. A dose-activity curve with the concentration spectrum was prepared.
(§3) The EC50 was extrapolated from the dose-response graph. The drug concentration that caused 50% maximum effect with regards to cytotoxicity was determined by plotting triplicate data points over a concentration range and calculating values using regression analysis of GraphPad PRISM v8 program.
(§4) MTX, 2-DG, and WGN were tested alone and in combination. […] The combination of all 3 compounds was also tested, along with a negative control (untreated). The results are shown for 4T1 mouse breast cancer cells (FIG. 3a) and MCF7 human breast cancer cells (FIG. 3b).
(§5) The testing protocol was the same as that described for the ED50 noted above.

[2] = tested on: MCF-7 (human breast cancer); assay: MTS cell viability assay, MCF-7 cells; format: cell-based; settings: for efficacy in killing cancer cells: MCF7, concentration 6× lower than the ED50 concentrations, FIG. 3b; for EC50: Homo sapiens, MCF7, MTS, 48 hours, individual drug, read-out: ED50 in MCF-7
Description: as §1, §2, §3, §4, §5

[3] = 2-DG used alone; cited from earlier work
[4] = 2-DG administration, patients; cited from earlier work
[5] = tested on: THP-1 (human myelomonocytic cancer); assay: MTS cell viability assay, THP-1 cells; format: cell-based; settings: 48 hours, individual drug, read-out: ED50 in THP-1
Description: as §1
(§6) Analysis of the effects of MTX-2DG-WGN combination on cell growth was performed with an MTS kit (CellTiter 96® AQueous One Solution Cell Proliferation Assay Kit, Promega, Madison, WI, USA) according to the manufacturer's instruction. […] Absorbance readings were taken in an Epoch microplate reader at 490 nm. […] Cell viability was calculated by the following formula: Cell viability (%)=(average OD in treated group/average OD in control group)×100%. […]
(§7) The EC50 was extrapolated from the dose-response graph. The drug concentration that caused 50% maximum effect with regards to cytotoxicity was determined by plotting triplicate data points over a concentration range and calculating values using regression analysis of GraphPad PRISM v8 program. […]

B16-F10 (mouse melanoma) = assay: MTS cell viability assay, B16-F10 cells; format: cell-based; settings: 48 hours, individual drug, read-out: ED50 in B16-F10
Description: as §1, §6, §7

[6] = tested on: dihydrofolate reductase (DHFR); settings: cited from earlier work
[7] = tested on: 4T1 mouse breast cancer cells 3D cancerspheres; assay: 3D cancersphere viability, 4T1; format: cell-based; settings: 4T1 cancerspheres, 48 h treatment; doxorubicin 25 μM, FIGS. 7a, 7b
Description: (§8) A new model for tumor growth in vitro has been established as 3D cultures known as cancerspheres. To evaluate the clinical translatability and predictivity of the novel combinatorial therapy in vivo, 3D cancerspheres suspended in media containing extracellular matrix proteins (ECM) were treated with the combination of MTX, 2-DG, and WGN.
(§9) Mammary tumorspheres were grown using Matrigel® Extracellular Matrix Basement Membrane (Corning, USA). […]
(§10) After 8 days of culture and 48 h treatment, tumorspheres of roughly 50 cells or more were selected for qualitative analysis. […] After 5 min, tumorspheres were analyzed microscopically. […] Dead (non-viable) spheroids were characterized as stained and displaying no luminescence.
(§11) On the 8th day of culture, media from MCF-7 and 4-T1 mammary tumorsphere cultures was changed and cells were then treated with either our novel combinatorial therapy or 25 μM doxorubicin. […] Absorbance readings were taken in an Epoch microplate reader at 490 nm. […] Cell viability was calculated by the following formula: Cell viability (%)=(average OD in treated group/average OD in control group)×100%.

[8] = tested on: MCF-7 human breast cancer cells 3D cancerspheres; assay: 3D cancersphere viability, MCF-7; format: cell-based; settings: MCF-7 cancerspheres, 48 h treatment; doxorubicin 25 μM, FIGS. 7c, 7d
Description: as §8, §9, §10, §11

SMILES	efficacy in killing cancer cells [1]	efficacy in killing cancer cells [2]	concentration needed to be effective when used alone [3] [mM]	doses at which adverse effects occur [4]	EC50 [1] [µM]	EC50 [2] [µM]	EC50 [5] [µM]	EC50 (B16-F10 (mouse melanoma)) [µM]	affinity for DHFR relative to folate [6]	efficacy against 3D cancerspheres [7]	efficacy against 3D cancerspheres [8]
OCC1O[C@H](O)C[C@@H](O)[C@@H]1O (mixture of isomers) [2-DG, 2-deoxyglucose]	no effect whatsoever	no effect whatsoever	> 5	above 63 mg/kg							
CN(Cc1cnc2nc(N)nc(N)c2n1)c1ccc(C(=O)N[C@@H](CCC(=O)O)C(=O)O)cc1 [MTG, Methotrexate]	no effect whatsoever	no effect whatsoever			0.049	0.049	1.82	0.019	about 1000 fold		
COc1c(O)cc(O)c2c(=O)cc(-c3ccccc3)oc12 [WGN, Wogonin]	no effect whatsoever	no effect whatsoever			85	20.2	83	76			
COc1cccc2c1C(=O)c1c(O)c3c(c(O)c1C2=O)C[C@@](O)(C(=O)CO)C[C@@H]3O[C@H]1C[C@H](N)[C@H](O)[C@H](C)O1 [doxorubicin]										resistant	resistant

From patent publication US12161657B2, “Combinatorial therapy for use in inducing immunogenic cell death in cancer cells” (priority 2021, dated 2024)
